Assay results: patent US12583825B2, “Benzo[h]quinazolin-4-amine and thieno[3,2-h]quinazolin-4-amine derivatives for the treatment of cancer” (Redona Therapeutics, Inc., priority 2020, dated 2026)

Assays:
recombinant human CLK3 = biological target: T1, recombinant human CLK3 (Homo sapiens, UniProt P49761); assay: CLK3 kinase assay (LANCE Ultra); type: biochemical; conditions: 0.5 nM CLK3, 300 μM ATP, 3 hours at 30° C.
T1 construct: purchased Thermo Fisher Scientific PV3826
Experimental: CLK3 kinase activity was measured using the LANCE® Ultra technology (PerkinElmer) essentially as recommended by the supplier. Briefly, 2.5 μL of test sample at 4× the desired final concentration in 4% DMSO were dispensed into white, low volume, round bottom, 384 well plates (Corning, cat. no. 4512). 5 μL of a mixture containing recombinant human CLK3 (Thermo Fisher Scientific, cat. no. PV3826) and the labeled peptide substrate ULight™-CREBtide (PerkinElmer, cat. no. TRF0107) prepared in 1.33× kinase buffer (Thermo Fisher Scientific, cat. no. PV3189) were then added. Finally, the reactions were started by adding 2.5 μL of a 4× solution of ATP in kinase buffer. The plates were sealed with adhesive foils and incubated for 3 hours at 30° C. in the dark. The final concentrations of CLK3, ULight™—CREBtide, and ATP were 0.5 nM, 50 nM, and 300 μM, respectively. 5 μL of 40 mM EDTA were then added to terminate the reactions. The Eu-anti-phospho-CREB antibody (PerkinElmer, cat. no. TRF0200) diluted in LANCE® detection buffer (PerkinElmer, cat. no. CR97) was then added to a final concentration of 2 nM and the reactions were incubated for 1 hour at room temperature in the dark. The signals were measured using a Synergy 4 reader (BioTek) with a 320/80 nm filter for the excitation and 620/10 nm and 665/8 nm filters for the donor and acceptor emission, respectively. […] IC50 values were calculated by fitting the concentration-response data to a sigmoidal 4-parameter logistic model.

MDA-MB-231 cells = assay: MDA-MB-231 proliferation assay; type: cell-based; conditions: Homo sapiens, 72 hours, YO-PRO-1 readout
Experimental: MDA-MB-231 Proliferation Assay
MDA-MB-231 cells were cultivated in DMEM High Glucose (4.5 g/L) with L-Glutamine (BioConcept, cat. no. 1-26F03-I) supplemented with 1% Na-pyruvate (Sigma, cat. no. S8636), 1% Penicillin-Streptomycin (BioConcept, cat. no. 4-01F00H), and 10% FBS (Sigma, cat. no. F9665) using standard techniques. Cells were seeded in black, clear-bottom 384 well plates for tissue culture (Greiner Bio-One, cat. no. 781091) at a density of 750 cells per well in 20 μL medium and the plates were incubated overnight at 37° C. with 5% CO2 prior to treatment. Experimental compounds were serially diluted in DMSO to 200× the desired final concentrations. The solutions were then diluted 1:40 with culture medium and 5 μL aliquots were mixed into the wells containing the cells. The final concentration of DMSO was 0.5%. The plates were incubated for 72 hours and cell numbers were then measured using YO-PRO™-1 Iodide (ThermoFisher Scientific, cat. no. Y3603) essentially as recommended by the manufacturer. […] The plates were incubated at room temperature in the dark for 30 minutes. Fluorescence intensity signals were then measured on a Synergy 4 reader (BioTek) using 485/20 nm and 530/25 nm filters for the excitation and emission, respectively. Relative proliferation values were calculated by normalizing the raw data using DMSO-treated cells (100% proliferation) and the signals obtained from cells that were evaluated at the time of compound addition (0% proliferation). The concentration-response data were fitted to a sigmoidal 4-parameter logistic model with the maximum constrained to 100%.

T1 sequence (P49761 whole entry): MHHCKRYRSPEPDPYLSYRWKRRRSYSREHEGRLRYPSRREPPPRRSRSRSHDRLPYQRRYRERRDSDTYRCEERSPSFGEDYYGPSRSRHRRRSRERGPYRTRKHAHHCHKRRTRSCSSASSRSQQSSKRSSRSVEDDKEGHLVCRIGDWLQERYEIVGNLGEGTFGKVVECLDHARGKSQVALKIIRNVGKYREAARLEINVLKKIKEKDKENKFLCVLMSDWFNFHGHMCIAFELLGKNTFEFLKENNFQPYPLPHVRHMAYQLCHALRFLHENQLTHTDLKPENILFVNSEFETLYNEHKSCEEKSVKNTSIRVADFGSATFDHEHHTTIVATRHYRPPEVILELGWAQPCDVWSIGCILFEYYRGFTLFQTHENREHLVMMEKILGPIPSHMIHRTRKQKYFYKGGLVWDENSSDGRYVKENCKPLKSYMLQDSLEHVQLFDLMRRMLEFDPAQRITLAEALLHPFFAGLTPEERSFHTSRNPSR

| SMILES | IC50 (recombinant human CLK3) [nM] | GI50 (MDA-MB-231 cells) [nM] |
| --- | --- | --- |
| CC1(C)/C(=N/OCC#N)c2cc(O[C@H]3CC[C@H](N)CC3)ccc2-c2ncnc(N)c21 [Example 22, [(Z)-[4-amino-8-(trans-4-aminocyclohexoxy)-5,5-dimethyl-benzo[h]quinazolin-6-ylidene]amino]oxyacetonitrile] | 34.5 | 691 |
| CCOC(=O)CCO/N=C1\c2cc(O[C@H]3CC[C@H](N)CC3)ccc2-c2ncnc(N)c2C1(C)C [Example 23, ethyl 3-[(Z)-[4-amino-8-(trans-4-aminocyclohexoxy)-5,5-dimethyl-benzo[h]quinazolin-6-ylidene]amino]oxypropanoate] | 26.5 | 647 |
| Cc1noc(C)c1CO/N=C1\c2cc(O[C@H]3CC[C@H](N)CC3)ccc2-c2ncnc(N)c2C1(C)C [Example 25, (6Z)-8-(trans-4-aminocyclohexoxy)-6-[(3,5-dimethylisoxazol-4-yl)methoxyimino]-5,5-dimethyl-benzo[h]quinazolin-4-amine] | 151 | 1600 |
| CC1(C)/C(=N/OCCCOCc2ccccc2)c2cc(O[C@H]3CC[C@H](N)CC3)ccc2-c2ncnc(N)c21 [Example 26, (6Z)-8-(trans-4-aminocyclohexoxy)-6-(3-benzyloxypropoxyimino)-5,5-dimethyl-benzo[h]quinazolin-4-amine] | 42.6 | 1360 |
| CC1(C)/C(=N/OCCN2CCCC2)c2cc(O[C@H]3CC[C@H](N)CC3)ccc2-c2ncnc(N)c21 [Example 28, (6Z)-8-(trans-4-aminocyclohexoxy)-5,5-dimethyl-6-(2-pyrrolidin-1-ylethoxyimino)benzo[h]quinazolin-4-amine] | 279 | > 2000 |
| CC(C)CO/N=C1\c2cc(O[C@H]3CC[C@H](N)CC3)ccc2-c2ncnc(N)c2C1(C)C [Example 30, (6Z)-8-(trans-4-aminocyclohexoxy)-6-isobutoxyimino-5,5-dimethyl-benzo[h]quinazolin-4-amine] | 93.9 | 1560 |
| COC(=O)CO/N=C1\c2cc(O[C@H]3CC[C@H](N)CC3)ccc2-c2ncnc(N)c2C1(C)C [Example 31, methyl 2-[(Z)-[4-amino-8-(trans-4-aminocyclohexoxy)-5,5-dimethyl-benzo[h]quinazolin-6-ylidene]amino]oxyacetate] | 76.2 | 1580 |
| CC1(C)/C(=N/OCC(N)=O)c2cc(O[C@H]3CC[C@H](N)CC3)ccc2-c2ncnc(N)c21 [Example 32, 2-[(Z)-[4-amino-8-(trans-4-aminocyclohexoxy)-5,5-dimethyl-benzo[h]quinazolin-6-ylidene]amino]oxyacetamide] | 29.6 | 1490 |
| CNC(=O)CO/N=C1\c2cc(O[C@H]3CC[C@H](N)CC3)ccc2-c2ncnc(N)c2C1(C)C [Example 33, 2-[(Z)-[4-amino-8-(trans-4-aminocyclohexoxy)-5,5-dimethyl-benzo[h]quinazolin-6-ylidene]amino]oxy-N-methyl-acetamide] | 23.3 | 1190 |
| CC1(C)/C(=N/OCC2CNC(=O)O2)c2cc(O[C@H]3CC[C@H](N)CC3)ccc2-c2ncnc(N)c21 (stereo partly drawn) [Example 34, 5-[[(Z)-[4-amino-8-(trans-4-aminocyclohexoxy)-5,5-dimethyl-benzo[h]quinazolin-6-ylidene]amino]oxymethyl]oxazolidin-2-one] | 10.9 | 620 |
| CN(C)CCO/N=C1\c2cc(O[C@H]3CC[C@H](N)CC3)ccc2-c2ncnc(N)c2C1(C)C [Example 35, (6Z)-8-(trans-4-aminocyclohexoxy)-6-[2-(dimethylamino)ethoxyimino]-5,5-dimethyl-benzo[h]quinazolin-4-amine] | 144 | 1480 |
| CO/N=C1\c2cc(O[C@H]3CC[C@H](N)CC3)sc2-c2ncnc(N)c2C1(C)C [Example 36, (6Z)-8-(trans-4-aminocyclohexoxy)-6-methoxyimino-5,5-dimethyl-thieno[3,2-h]quinazolin-4-amine] | 56.4 | 1150 |
| CC1(C)/C(=N/OC[C@H]2CNC(=O)O2)c2cc(O[C@H]3CC[C@H](N)CC3)ccc2-c2ncnc(N)c21 [Example 37, (5R)-5-[[(Z)-[4-amino-8-(trans-4-aminocyclohexoxy)-5,5-dimethyl-benzo[h]quinazolin-6-ylidene]amino]oxymethyl]oxazolidin-2-one] | 59 | > 2000 |
| CO/N=C1\c2cc(OC)c(Cl)cc2-c2ncnc(N)c2C1(C)C [Example 41, (6Z)-9-chloro-8-methoxy-6-methoxyimino-5,5-dimethyl-benzo[h]quinazolin-4-amine] | 92.8 | > 2000 |
| CO/N=C1\c2c(ccc(OC)c2Cl)-c2ncnc(N)c2C1(C)C [Example 43, (6Z)-7-chloro-8-methoxy-6-methoxyimino-5,5-dimethyl-benzo[h]quinazolin-4-amine] | 90.5 | > 2000 |

Next, values leading:

| IC50 (recombinant human CLK3) [nM] | GI50 (MDA-MB-231 cells) [nM] | SMILES |
| --- | --- | --- |
| 15.8 | > 2000 | CO/N=C1\c2cc(N(C)[C@H]3CC[C@H](N)CC3)ccc2-c2ncnc(N)c2C1(C)C [Example 44, (6Z)—N8-(trans-4-aminocyclohexyl)-6-methoxyimino-N8,5,5-trimethyl-benzo[h]quinazoline-4,8-diamine] |
| 104 | 1460 | CO/N=C1/c2cc(O[C@H]3CC[C@H](N)CC3)ccc2-c2ncnc(N)c2C1(C)C [Example 45, (6E)-8-(trans-4-aminocyclohexoxy)-6-methoxyimino-5,5-dimethyl-benzo[h]quinazolin-4-amine] |
| 12.7 | 470 | CC1(C)/C(=N\O)c2cc(O[C@H]3CC[C@H](N)CC3)ccc2-c2ncnc(N)c21 [Example 46, (6E)-4-amino-8-(trans-4-aminocyclohexoxy)-5,5-dimethyl-benzo[h]quinazolin-6-one oxime] |
| 77.3 | 443 | C=C(c1ccc2c(c1)/C(=N/OC)C(C)(C)c1c(N)ncnc1-2)[C@H]1CC[C@H](N)CC1 [Example 47, (6E)-8-[1-(trans-4-aminocyclohexyl)vinyl]-6-methoxyimino-5,5-dimethyl-benzo[h]quinazolin-4-amine] |
| 4.9 | > 2000 | CO/N=C1/c2c(ccc(OC)c2Cl)-c2ncnc(N)c2C1(C)C [Example 48, (6E)-7-chloro-8-methoxy-6-methoxyimino-5,5-dimethyl-benzo[h]quinazolin-4-amine] |
| 14.4 | > 2000 | CO/N=C1/c2c(ccc(OC)c2N)-c2ncnc(N)c2C1(C)C [Example 49, (6E)-8-methoxy-6-methoxyimino-5,5-dimethyl-benzo[h]quinazoline-4,7-diamine] |
| < 1.5 | 761 | COc1ccc2c(c1)/C(=N\OC[C@@H]1CN(C)C(=O)O1)C(C)(C)c1c(N)ncnc1-2 [Example 50, (5S)-5-[[(Z)-(4-amino-8-methoxy-5,5-dimethyl-benzo[h]quinazolin-6-ylidene)amino]oxymethyl]-3-methyl-oxazolidin-2-one] |
| 7.26 | 511 | CC1(C)/C(=N/OC[C@@H]2CNC(=O)O2)c2cc(Br)ccc2-c2ncnc(N)c21 [Example 51, (5S)-5-[[(Z)-(4-amino-8-bromo-5,5-dimethyl-benzo[h]quinazolin-6-ylidene)amino]oxymethyl]oxazolidin-2-one] |
| < 1.5 | 445 | CN1C[C@@H](CO/N=C2\c3cc(Cl)ccc3-c3ncnc(N)c3C2(C)C)OC1=O [Example 52, (5S)-5-[[(Z)-(4-amino-8-chloro-5,5-dimethyl-benzo[h]quinazolin-6-ylidene)amino]oxymethyl]-3-methyl-oxazolidin-2-one] |
| < 1.5 | 194 | CN1C[C@@H](CO/N=C2\c3cc(Br)ccc3-c3ncnc(N)c3C2(C)C)OC1=O [Example 53, (5S)-5-[[(Z)-(4-amino-8-bromo-5,5-dimethyl-benzo[h]quinazolin-6-ylidene)amino]oxymethyl]-3-methyl-oxazolidin-2-one] |
